Assay results: patent US9255101B2 (BIOPROJECT, priority 2012, dated 2016)
pIC50, pKi: −log10 of the molar value. Counter-ions that a name gives are not always drawn.

How the values were obtained:
human H4 receptor [1] = biological target: T1, human H4 receptor (Homo sapiens, UniProt Q9H3N8); experiment: biochemical
human H4 receptor [2] = biological target: T1, human H4 receptor; experiment: biochemical; remark: listed apart in the source
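Wherever pIC50 is given: membranes from SH-SY5Y cells with stable human H4 receptor expression, incubated with GDP 10 µM, radioactivity retained on filters counted by liquid scintillation.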
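Wherever pKi is given: radioligand displacement of a [3H]-labelled ligand from membranes of CHO cells stably expressing human H4 receptor, bound radioactivity counted on filters by liquid scintillation.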

pIC50 (human H4 receptor [1]) | pKi (human H4 receptor [2]) | SMILES
> 7.52 | > 6.52 | CN1CCC(OC2c3ccccc3CCn3cc(-c4ccccc4Cl)nc32)CC1 (single isomer, unassigned) [Example 54B, 2-(2-chlorophenyl)-4-(1-methylpiperidin-4-yloxy)-9,10-dihydro-4H-3,10a-diaza-benzo[f]azulene]
> 7.52 | > 7.52 | Cc1c(-c2ccccc2)nc2n1CCc1ccccc1C2OC1CCN(C)CC1 (single isomer, unassigned) [Example 135B, 1-methyl-4-(1-methyl-piperidin-4-yloxy)-2-phenyl-9,10-dihydro-4H-3,10a-diaza-benzo[f]azulene]
– | > 7.52 | Cc1c(CCC(C)(C)C)nc2n1CCc1ccccc1C2OC1CCN(C)CC1 (stereo not shown) [Example 229, 2-(3,3-dimethyl-butyl)-1-methyl-4-(1-methylpiperidin-4-yloxy)-9,10-dihydro-4H-3,10a-diaza-benzo[f]azulene]
– | > 7.52 | CN1CCC(OC2c3ccccc3CCn3c2nc(-c2ccccc2)c3C#N)CC1 (stereo not shown) [Example 235, 4-(1-methylpiperidin-4-yloxy)-2-phenyl-9,10-dihydro-4H-3,10a-diaza-benzo[f]azulene-1-carbonitrile]
– | > 6.52 | CCCc1nc2n(c1-c1ccccc1)CCc1ccccc1C2OC1CCN(C)CC1 (stereo not shown) [Example 246, 4-(1-methyl-piperidin-4-yloxy)-1-phenyl-2-propyl-9,10-dihydro-4H-3,10a-diaza-benzo[f]azulene]
– | > 6.00 | Cc1c(-c2ccncc2)nc2n1CCc1ccccc1C2OC1CCN(C)CC1 (stereo not shown) [Example 250, 1-methyl-4-(1-methylpiperidin-4-yloxy)-2-pyridin-4-yl-9,10-dihydro-4H-3,10a-diaza-benzo[f]azulene]
– | > 6.52 | Cc1c(-c2ccccn2)nc2n1CCc1ccccc1C2OC1CCN(C)CC1 (stereo not shown) [Example 251, 1-methyl-4-(1-methylpiperidin-4-yloxy)-2-pyridin-2-yl-9,10-dihydro-4H-3,10a-diaza-benzo[f]azulene]
– | > 6.52 | COC(=O)c1c(-c2ccccc2)nc2n1CCc1ccccc1C2OC1CCN(C)CC1 (stereo not shown) [Example 256, 4-(1-methylpiperidin-4-yloxy)-2-phenyl-9,10-dihydro-4H-3,10a-diaza-benzo[f]azulene-1-carboxylic acid methyl ester]
– | > 6.52 | C=C(C)Cc1nc2n(c1C)CCc1ccccc1C2OC1CCN(C)CC1 (stereo not shown) [Example 260, 1-methyl-2-(2-methylallyl)-4-(1-methylpiperidin-4-yloxy)-9,10-dihydro-4H-3,10a-diaza-benzo[f]azulene]
– | > 6.52 | CN1CCC(OC2c3ccccc3CCn3c2nc(Cc2ccccc2)c3C#N)CC1 (stereo not shown) [Example 263, 2-benzyl-4-(1-methylpiperidin-4-yloxy)-9,10-dihydro-4H-3,10a-diaza-benzo[f]azulene-1-carbonitrile]
– | > 6.00 | CN(C)CCOC1c2ccccc2CCn2c1nc(I)c2I (stereo not shown) [Example 264, [2-(1,2-diiodo-9,10-dihydro-4H-3,10a-diaza-benzo[f]azulen-4-yloxy)-ethyl]-dimethyl-amine]
– | > 6.52 | C=C(C)Cc1nc2n(c1C(N)=O)CCc1ccccc1C2OC1CCN(C)CC1 (stereo not shown) [Example 266, 2-(2-methylallyl)-4-(1-methylpiperidin-4-yloxy)-9,10-dihydro-4H-3,10a-diaza-benzo[f]azulene-1-carboxylic acid amide]
– | > 6.52 | CN1CCC(OC2c3ccccc3CCn3c2nc(I)c3I)C1 (stereo not shown) [Example 268, 1,2-diiodo-4-(1-methylpyrrolidin-3-yloxy)-9,10-dihydro-4H-3,10a-diaza-benzo[f]azulene]
– | > 6.00 | CN(C)CCCOC1c2ccccc2CCn2c1nc(I)c2I (stereo not shown) [Example 270, [3-(1,2-diiodo-9,10-dihydro-4H-3,10a-diaza-benzo[f]azulen-4-yloxy)-propyl]-dimethyl-amine]
– | > 7.52 | CN1CCC(OC2c3ccccc3CCn3c2nc(-c2ccccc2Cl)c3C#N)CC1 (stereo not shown) [Example 272, 2-(2-chlorophenyl)-4-(1-methyl-piperidin-4-yloxy)-9,10-dihydro-4H-3,10a-diaza-benzo[f]azulene-1-carbonitrile oxalate]
– | > 6.52 | CN1CCC(OC2c3ccccc3CCn3c2nc(-c2ccccc2Cl)c3C(N)=O)CC1 (stereo not shown) [Example 273, 2-(2-chlorophenyl)-4-(1-methylpiperidin-4-yloxy)-9,10-dihydro-4H-3,10a-diaza-benzo[f]azulene-1-carboxylic acid amide]

Continued, compound first:

SMILES | pIC50 (human H4 receptor [1]) | pKi (human H4 receptor [2])
Cc1ccc(-c2cn3c(n2)C(OC2CCN(C)CC2)c2ccccc2CC3)cc1 (stereo not shown) [Example 5, 4-(1-methylpiperidin-4-yloxy)-2-p-tolyl-9,10-dihydro-4H-3,10a-diaza-benzo[f]azulene] | > 6.52 | > 7.52
Cc1cccc(-c2cn3c(n2)C(OC2CCN(C)CC2)c2ccccc2CC3)c1 (stereo not shown) [Example 6, 4-(1-methyl-piperidin-4-yloxy)-2-m-tolyl-9,10-dihydro-4H-3,10a-diaza-benzo[f]azulene] | > 6.52 | > 6.52
CC(=O)c1ccc(-c2cn3c(n2)C(OC2CCN(C)CC2)c2ccccc2CC3)cc1 (stereo not shown) [Example 11, 1-{4-[4-(1-methylpiperidin-4-yloxy)-9,10-dihydro-4H-3,10a-diaza-benzo[f]azulen-2-yl]-phenyl}ethanone] | > 6.52 | > 7.52
CN1CCC(OC2c3ccccc3CCn3cc(-c4ccsc4)nc32)CC1 (stereo not shown) [Example 12, 4-(1-methylpiperidin-4-yloxy)-2-thiophen-3-yl-9,10-dihydro-4H-3,10a-diaza-benzo[f]azulene] | > 6.52 | > 6.52
CN1CCC(OC2c3ccccc3CCn3cc(-c4ccc(OC(F)(F)F)cc4)nc32)CC1 (stereo not shown) [Example 15, 4-(1-methylpiperidin-4-yloxy)-2-(4-trifluoromethoxyphenyl)-9,10-dihydro-4H-3,10a-diaza-benzo[f]azulene oxalate] | > 7.52 | > 7.52
CSc1ccc(-c2cn3c(n2)C(OC2CCN(C)CC2)c2ccccc2CC3)cc1 (stereo not shown) [Example 20, 4-(1-methylpiperidin-4-yloxy)-2-(4-methylsulfanylphenyl)-9,10-dihydro-4H-3,10a-diaza-benzo[f]azulene] | > 7.52 | > 7.52
CCc1ccc(-c2cn3c(n2)C(OC2CCN(C)CC2)c2ccccc2CC3)cc1 (stereo not shown) [Example 21, 2-(4-ethylphenyl)-4-(1-methylpiperidin-4-yloxy)-9,10-dihydro-4H-3,10a-diaza-benzo[f]azulene] | > 7.52 | > 6.52
CCCc1ccc(-c2cn3c(n2)C(OC2CCN(C)CC2)c2ccccc2CC3)cc1 (stereo not shown) [Example 22, 4-(1-methylpiperidin-4-yloxy)-2-(4-propylphenyl)-9,10-dihydro-4H-3,10a-diaza-benzo[f]azulene] | > 6.52 | > 7.52
Ic1nc2n(c1I)CCc1ccccc1C2OCCN1CCCCC1 (stereo not shown) [Example 265, 1,2-diiodo-4-(2-piperidin-1-yl-ethoxy)-9,10-dihydro-4H-3,10a-diaza-benzo[f]azulene] | – | > 6.00
CN1C2CCC1CC(OC1c3ccccc3CCn3c1nc(I)c3I)C2 (stereo not shown) [Example 269, 1,2-diiodo-4-(8-methyl-8-aza-bicyclo[3.2.1]oct-3-yloxy)-9,10-dihydro-4H-3,10a-diaza-benzo[f]azulene] | – | > 6.00
Ic1nc2n(c1I)CCc1ccccc1C2OC1CN2CCC1CC2 (stereo not shown) [Example 271, 4-(1-azabicyclo[2.2.2]oct-3-yloxy)-1,2-diiodo-9,10-dihydro-4H-3,10a-diaza-benzo[f]azulene oxalate] | – | > 6.00
